In ChEMBL document CHEMBL1811900, “Sesquiterpene glycosides from Cosmospora joca” (J Nat Prod, 2011):
The source made the active and inactive calls. The calls are words filed in the database; no cut-off is given here.

Legend:
RAW264.7 [1] = experiment: Antiinflammatory activity in mouse RAW264.7 cells assessed as inhibition of LPS-stimulated NO production at 100 uM after 24 hrs by spectrophotometry; assay type: functional
RAW264.7 [2] = experiment: Antiinflammatory activity in mouse RAW264.7 cells assessed as inhibition of LPS-stimulated NO production at 0.1 to 100 uM after 24 hrs by spectrophotometry; assay type: functional, cell-based
RAW264.7 [3] = experiment: Cytotoxicity against mouse RAW264.7 cells by Alamar blue assay; assay type: cell-based

Row | SMILES | inhibition (RAW264.7 [1]) | Imax (RAW264.7 [1]) | other results
1 | CCCCC/C=C\CCC(=O)O[C@@H]1[C@H](O[C@@H](C[C@H](OC(C)=O)/C(C)=C/CO[C@@H]([C@H](O)[C@H](O)CO)[C@H](O)CO)[C@](C)(O)CCC=C(C)C)O[C@H](CO)[C@@H](O)[C@@H]1O | Active |  | 
2 | CCCCCCCCCC(=O)O[C@@H]1[C@H](O[C@@H](C[C@H](OC(C)=O)/C(C)=C/CO[C@@H]([C@H](O)[C@H](O)CO)[C@H](O)CO)[C@](C)(O)CCC=C(C)C)O[C@H](CO)[C@@H](O)[C@@H]1O [COSMOSPORASIDE D] |  | 71.7% | inhibition (RAW264.7 [2]): Dose-dependent effect; IC50 (RAW264.7 [2]; RAW264.7, 24 h): 66 µM
3 | CC(C)=CCC/C(C)=C/CC/C(C)=C/CO[C@@H]([C@H](O)[C@H](O)CO)[C@H](O)CO [COSMOSPORASIDE A] |  | 54.52% | Activity (RAW264.7 [3]): Toxic
4 | CC(=O)OC(CC(=O)C(C)CCC=C(C)C)/C(C)=C/CO[C@@H]([C@H](O)[C@H](O)CO)[C@H](O)CO (stereo partly drawn) | Active |  | 
5 | CC(=O)O[C@@H](C[C@H](O[C@@H]1O[C@H](CO)[C@@H](O)[C@H](O)[C@@H]1O)[C@](C)(O)CCC=C(C)C)/C(C)=C/CO[C@@H]([C@H](O)[C@H](O)CO)[C@H](O)COCC=C(C)C | inactive |  | 
